This is an account of results in US20070128217A1 (priority 2003, published 2007).

The test system of experiment [1] is rabbit serum obtained by immunizing a rabbit with the SARS-CoV strain Frankfurt 1. It counts as binding. The arrangement: Binding of a rabbit serum to linear peptides / Binding of a rabbit serum to looped peptides / Rabbit serum linear peptides / Rabbit serum looped peptides / Binding of a rabbit serum to linear peptides of protein N of SARS-CoV Urbani (Rabbit serum linear peptides) / Binding of a rabbit serum to looped/cyclic peptides of protein N of SARS-CoV Urbani (Rabbit serum looped peptides): unit not given here.

For experiment [2], the system named is control sera (pooled serum of ten healthy LUMC hospital workers; commercial negative donor pooled serum from the Dutch bloodbank). The class given is binding, human. More on the design: Binding of Control serum LUMC to linear peptides / Binding of Control serum Blood-bank to linear peptides / Binding of Control serum LUMC to looped peptides / Binding of Control Serum Blood-Bank to Looped peptides / Binding of Control serum LUMC to linear peptides of the protein M of SARS-CoV Urbani / Binding of Control serum Blood-bank to linear peptides of the protein M of SARS-CoV Urbani / Binding of Control serum LUMC to looped peptides of the protein M of SARS-CoV Urbani / Binding of Control Serum Blood-Bank to Looped peptides of the protein M of SARS-CoV Urbani: unit not given here.

The test system of experiment [3] is antibodies in sera from SARS patients (sera 1a, 1b, 2, 6, 37, 62, London, SARS-yellow, SARS-green). It counts as binding, human. More on the design: Binding of serum 6 to linear peptides of protein X1 of SARS-CoV Urbani / Binding of serum 37 to linear peptides of protein X1 of SARS-CoV Urbani / Binding of serum 6 to looped/cyclic peptide (PEPSCAN-ELISA) / Binding of serum 37 to looped/cyclic peptide (PEPSCAN-ELISA) / Binding of serum 37 to looped/cyclic peptides of protein X1 of SARS-CoV Urbani / Binding of serum 6 to linear peptides of protein X2 / Binding of serum 37 to linear peptides of protein X2 / Binding of serum 37 to looped/cyclic peptides of protein X2 of SARS-CoV Urbani / Binding of serum 6 to linear peptides of protein M of SARS-CoV Urbani / Binding of serum 37 to linear peptides of protein M of SARS-CoV Urbani / Binding of serum 6 to looped/cyclic peptides of protein M of SARS-CoV Urbani / Binding of serum 37 to looped/cyclic peptides of protein M of SARS-CoV Urbani / Binding of serum 6 to linear peptides of protein X3 of SARS-CoV Urbani / Binding of serum 37 to linear peptides of protein X3 of SARS-CoV Urbani / Binding of serum 37 to looped/cyclic peptides of protein X3 of SARS-CoV Urbani / Binding of serum 6 to linear peptides of protein X4 of SARS-CoV Urbani / Binding of serum 37 to linear peptides of protein X4 of SARS-CoV Urbani / Binding of serum 37 to looped/cyclic peptides of protein X4 of SARS-CoV Urbani / Binding of serum 6 to linear peptides of protein X5 of SARS-CoV Urbani / Binding of serum 37 to linear peptides of protein X5 of SARS-CoV Urbani / Binding of serum 37 to looped/cyclic peptides of protein X5 of SARS-CoV Urbani / Binding of serum 6 to linear peptides of protein N of SARS-CoV Urbani / Binding of serum 37 to linear peptides of protein N of SARS-CoV Urbani / Binding of serum 6 to linear peptide (PEPSCAN-ELISA) / Binding of serum 1a to looped/cyclic peptides of protein N of SARS-CoV Urbani / Binding of serum 1b to looped/cyclic peptides of protein N of SARS-CoV Urbani / Binding of serum 2 to looped/cyclic peptides of protein N of SARS-CoV Urbani / Binding of serum 6 to looped/cyclic peptides of protein N of SARS-CoV Urbani / Binding of serum 37 to looped/cyclic peptides of protein N of SARS-CoV Urbani / Binding of serum 62 to looped/cyclic peptides of protein N of SARS-CoV Urbani / Binding of serum London to looped/cyclic peptides of protein N of SARS-CoV Urbani / Binding of serum SARS-green to looped/cyclic peptides of protein N of SARS-CoV Urbani: unit not given here.

TNILLNVPLRGTIVT: in experiment [1], the “Rabbit serum linear peptides” value is on record as 0.2 and the “Rabbit serum looped peptides” value was 0.1. In addition, in experiment [2], the “Binding of Control Serum Blood-Bank to Looped peptides of the protein M of SARS-CoV Urbani” value stood at 0.8, the “Binding of Control serum Blood-bank to linear peptides of the protein M of SARS-CoV Urbani” value was 0.8, the “Binding of Control serum LUMC to linear peptides of the protein M of SARS-CoV Urbani” value is 0.7 and the “Binding of Control serum LUMC to looped peptides of the protein M of SARS-CoV Urbani” value amounted to 0.6. In experiment [3], the “Binding of serum 1a to linear peptides of protein M of SARS-CoV Urbani” value was found to be 0.6, the “Binding of serum 1a to looped/cyclic peptides of protein M of SARS-CoV Urbani” value is 0.6, the “Binding of serum 1b to linear peptides of protein M of SARS-CoV Urbani” value is reported as 0.5 and the “Binding of serum 1b to looped/cyclic peptides of protein M of SARS-CoV Urbani” value turned out to be 0.4. In addition, in experiment [3], the “Binding of serum 2 to linear peptides of protein M of SARS-CoV Urbani” value was 0.6, the “Binding of serum 2 to looped/cyclic peptides of protein M of SARS-CoV Urbani” value amounted to 0.6, the “Binding of serum 6 to linear peptides of protein M of SARS-CoV Urbani” value was determined as 0.4 and the “Binding of serum 6 to looped/cyclic peptides of protein M of SARS-CoV Urbani” value turned out to be 0.8. In addition, in experiment [3], the “Binding of serum 37 to linear peptides of protein M of SARS-CoV Urbani” value is 0.4, the “Binding of serum 37 to looped/cyclic peptides of protein M of SARS-CoV Urbani” value came out at 0.7, the “Binding of serum 62 to linear peptides of protein M of SARS-CoV Urbani” value was found to be 0.5 and the “Binding of serum 62 to looped/cyclic peptides of protein M of SARS-CoV Urbani” value came to 0.6. In experiment [3], the “Binding of serum London to linear peptides of protein M of SARS-CoV Urbani” value was 0.3, the “Binding of serum London to looped/cyclic peptides of protein M of SARS-CoV Urbani” value was determined as 0.2, the “Binding of serum SARS-green to linear peptides of protein M of SARS-CoV Urbani” value was 0.5 and the “Binding of serum SARS-green to looped/cyclic peptides of protein M of SARS-CoV Urbani” value was 0.2. In experiment [3], the “Binding of serum SARS-yellow to linear peptides of protein M of SARS-CoV Urbani” value is 0.2 and the “Binding of serum SARS-yellow to looped/cyclic peptides of protein M of SARS-CoV Urbani” value turned out to be 0.4.
In the case of TQITTDTGIENATFF, in experiment [1], the “Binding of a rabbit serum to linear peptides” value stood at 0.1 and the “Binding of a rabbit serum to looped peptides” value came to 0.6. Also, in experiment [2], the “Binding of Control Serum Blood-Bank to Looped peptides” value stood at 0.5, the “Binding of Control serum Blood-bank to linear peptides” value turned out to be 0.6, the “Binding of Control serum LUMC to linear peptides” value was 0.8 and the “Binding of Control serum LUMC to looped peptides” value is recorded as 0.5. Moreover, in experiment [3], the “Binding of serum 1a to linear peptides of protein X1 of SARS-CoV Urbani” value came out at 0.7, the “Binding of serum 1a to looped/cyclic peptides of protein X1 of SARS-CoV Urbani” value turned out to be 0.5, the “Binding of serum 1b to linear peptides of protein X1 of SARS-CoV Urbani” value came out at 0.6 and the “Binding of serum 1b to looped/cyclic peptides of protein X1 of SARS-CoV Urbani” value is recorded as 0.3. Moreover, in experiment [3], the “Binding of serum 2 to linear peptides of protein X1 of SARS-CoV Urbani” value amounted to 0.5, the “Binding of serum 2 to looped/cyclic peptides of protein X1 of SARS-CoV Urbani” value was found to be 0.2, the “Binding of serum 6 to linear peptides of protein X1 of SARS-CoV Urbani” value is reported as 0.6 and the “Binding of serum 6 to looped/cyclic peptides of protein X1 of SARS-CoV Urbani” value is listed as 0.3. In experiment [3], the “Binding of serum 37 to linear peptides of protein X1 of SARS-CoV Urbani” value is given as 0.7, the “Binding of serum 37 to looped/cyclic peptides of protein X1 of SARS-CoV Urbani” value is reported as 0.4, the “Binding of serum 62 to linear peptides of protein X1 of SARS-CoV Urbani” value is listed as 0.5 and the “Binding of serum 62 to looped/cyclic peptides of protein X1 of SARS-CoV Urbani” value was determined as 0.5. For the same sequence, in experiment [3], the “Binding of serum London to linear peptides of protein X1 of SARS-CoV Urbani” value is 0.3, the “Binding of serum London to looped/cyclic peptides of protein X1 of SARS-CoV Urbani” value was 0.2, the “Binding of serum SARS-green to linear peptides of protein X1 of SARS-CoV Urbani” value is given as 0.7 and the “Binding of serum SARS-green to looped/cyclic peptides of protein X1 of SARS-CoV Urbani” value came to 0.3. Further, in experiment [3], the “Binding of serum SARS-yellow to linear peptides of protein X1 of SARS-CoV Urbani” value amounted to 0.5 and the “Binding of serum SARS-yellow to looped/cyclic peptides of protein X1 of SARS-CoV Urbani” value is recorded as 0.4.
For the sequence TQSTALQELLIQQWI, in experiment [1], the “Binding of a rabbit serum to linear peptides” value was determined as 0.3 and the “Binding of a rabbit serum to looped peptides” value came out at 0.4. In addition, in experiment [2], the “Binding of Control Serum Blood-Bank to Looped peptides” value is recorded as 0.7, the “Binding of Control serum Blood-bank to linear peptides” value amounted to 0.8, the “Binding of Control serum LUMC to linear peptides” value came to 0.6 and the “Binding of Control serum LUMC to looped peptides” value was 0.6. In experiment [3], the “Binding of serum 1a to linear peptides of protein X2” value is given as 0.7, the “Binding of serum 1a to looped/cyclic peptides of protein X2 of SARS-CoV Urbani” value came to 0.6, the “Binding of serum 1b to linear peptides of protein X2” value worked out at 0.6 and the “Binding of serum 1b to looped/cyclic peptides of protein X2 of SARS-CoV Urbani” value is on record as 0.5. In addition, in experiment [3], the “Binding of serum 2 to linear peptides of protein X2” value worked out at 0.3, the “Binding of serum 2 to looped/cyclic peptides of protein X2 of SARS-CoV Urbani” value is 0.4, the “Binding of serum 6 to linear peptides of protein X2” value worked out at 0.7 and the “Binding of serum 6 to looped/cyclic peptides of protein X2 of SARS-CoV Urbani” value came out at 0.2. For the same sequence, in experiment [3], the “Binding of serum 37 to linear peptides of protein X2” value was 0.6, the “Binding of serum 37 to looped/cyclic peptides of protein X2 of SARS-CoV Urbani” value came to 0.6, the “Binding of serum 62 to linear peptides of protein X2” value worked out at 0.6 and the “Binding of serum 62 to looped/cyclic peptides of protein X2 of SARS-CoV Urbani” value is on record as 0.6. Besides, in experiment [3], the “Binding of serum London to linear peptides of protein X2” value turned out to be 0.7, the “Binding of serum London to looped/cyclic peptides of protein X2 of SARS-CoV Urbani” value was found to be 0.2, the “Binding of serum SARS-green to linear peptides of protein X2” value is on record as 0.6 and the “Binding of serum SARS-green to looped/cyclic peptides of protein X2 of SARS-CoV Urbani” value turned out to be 0.5. Further, in experiment [3], the “Binding of serum SARS-yellow to linear peptides of protein X2” value came out at 0.7 and the “Binding of serum SARS-yellow to looped/cyclic peptides of protein X2 of SARS-CoV Urbani” value is recorded as 0.5.
In the case of TRPLMESELVIGAVI, in experiment [1], the “Rabbit serum linear peptides” value is given as 0.2 and the “Rabbit serum looped peptides” value came to 0.3. For the same sequence, in experiment [2], the “Binding of Control Serum Blood-Bank to Looped peptides of the protein M of SARS-CoV Urbani” value is on record as 1.1, the “Binding of Control serum Blood-bank to linear peptides of the protein M of SARS-CoV Urbani” value turned out to be 0.9, the “Binding of Control serum LUMC to linear peptides of the protein M of SARS-CoV Urbani” value turned out to be 1.0 and the “Binding of Control serum LUMC to looped peptides of the protein M of SARS-CoV Urbani” value came to 1.0. Further, in experiment [3], the “Binding of serum 1a to linear peptides of protein M of SARS-CoV Urbani” value was found to be 0.8, the “Binding of serum 1b to linear peptides of protein M of SARS-CoV Urbani” value was 0.7, the “Binding of serum 2 to linear peptides of protein M of SARS-CoV Urbani” value came to 0.7 and the “Binding of serum 6 to linear peptides of protein M of SARS-CoV Urbani” value stood at 0.6. In addition, in experiment [3], the “Binding of serum 37 to linear peptides of protein M of SARS-CoV Urbani” value is listed as 0.7, the “Binding of serum 62 to linear peptides of protein M of SARS-CoV Urbani” value is 0.6, the “Binding of serum London to linear peptides of protein M of SARS-CoV Urbani” value is on record as 0.3 and the “Binding of serum SARS-green to linear peptides of protein M of SARS-CoV Urbani” value came to 0.8. Also, in experiment [3], the “Binding of serum SARS-yellow to linear peptides of protein M of SARS-CoV Urbani” value was found to be 0.2; the “Recognition of the peptide by sera of SARS-CoV infected individuals, and form (linear, looped/cyclic) in which it is recognized” value is recorded as “recognized in looped/cyclic form”.
